{"source": "patent US20080031968A1", "about": "“Methods for increasing cellular energy expenditure” (priority 2005, published 2008)", "key": {"[1]": {"test_system": "HSMM", "assay": "cAMP levels in human skeletal muscle myoblasts", "type": "cell-based", "conditions": "1 mM IBMX, 30 minutes", "quoted_text": "HSMM were obtained from Cambrex (Walkersville, Md.) and were cultured according to the suppliers instructions. […] For the cAMP measurements, cells were preincubated 12 h in Opti-MEM (Life Technologies, Cergy Pontoise, France), supplemented with 1 mM IBMX. Then medium was changed and cells were incubated for another 1 h in Opti-MEM with 1 mM IBMX, after which the medium was replaced for Opti-MEM with 1 mM IBMX and the indicated compounds. After 30 minutes the cells were lysed for cAMP analysis."}, "[2]": {"test_system": "BAT cells", "assay": "Isolated mouse BAT cells, D2 mRNA, D2 activity and cAMP", "type": "cell-based", "method": "An OGTT was performed in animals that were fasted overnight. Glucose was administered by gavage at a dose of 2 g/kg. An IPITT was done in 4 h fasted animals. Insulin was injected at a dose of 0.75 U/kg. Glucose quantification was done with the Maxi Kit Glucometer 4 (Bayer Diagnostic, Puteaux, France) or Glucose RTU (bioMérieux Inc., Marcy l'Etoile, France). Plasma insulin concentrations were measured using ELISA (Cristal Chem Inc., Downers Grove, Ill.). Nonesterified fatty acids, triglycerides, ketone bodies, BA and total cholesterol were determined by enzymatic assays (Roche, Mannheim, Germany). cAMP was measured using the cAMP-Screen system (Applied Biosystems, Bedford, Mass.)."}, "[3]": {"molecular_target": "T1, TGR5 (Homo sapiens, UniProt Q8TDU6)", "T1 construct": "expressed in transfected cells", "T1 sequence (Q8TDU6 1-330)": "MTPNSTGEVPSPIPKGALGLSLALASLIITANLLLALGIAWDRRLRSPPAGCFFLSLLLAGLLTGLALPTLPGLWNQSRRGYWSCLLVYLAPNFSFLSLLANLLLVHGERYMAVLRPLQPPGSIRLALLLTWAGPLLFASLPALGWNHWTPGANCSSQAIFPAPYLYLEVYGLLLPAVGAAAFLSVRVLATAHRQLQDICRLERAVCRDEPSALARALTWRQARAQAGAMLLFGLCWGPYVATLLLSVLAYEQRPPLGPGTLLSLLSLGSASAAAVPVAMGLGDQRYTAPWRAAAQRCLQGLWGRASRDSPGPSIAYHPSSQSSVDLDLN", "assay": "cAMP response element (CRE)-luciferase reporter assay with TGR5", "type": "cell-based", "conditions": "cells co-transfected with TGR5 expression plasmid and CRE-driven luciferase reporter", "from_the_text": "Since a synthetic FXRα agonist was unable to phenocopy the effects of BAs on energy expenditure, we focused our attention on FXRα-independent signaling events stimulated by BAs. […] We used a cAMP response element (CRE)-luciferase reporter assay to confirm that TGR5 is a BA receptor.\nWe used quantitative RT-PCR to measure the expression of D2 and TGR5 mRNAs in selected mouse tissues."}, "[4]": {"test_system": "HSMM", "assay": "D2 activity in human skeletal muscle myoblasts", "type": "cell-based", "conditions": "16 h incubation", "method": "HSMM were obtained from Cambrex (Walkersville, Md.) and were cultured according to the suppliers instructions. D2 activity measurements were performed after a 16 h incubation with the indicated compounds. For the cAMP measurements, cells were preincubated 12 h in Opti-MEM (Life Technologies, Cergy Pontoise, France), supplemented with 1 mM IBMX. Then medium was changed and cells were incubated for another 1 h in Opti-MEM with 1 mM IBMX, after which the medium was replaced for Opti-MEM with 1 mM IBMX and the indicated compounds. After 30 minutes the cells were lysed for cAMP analysis."}, "[5]": {"molecular_target": "T1, TGR5", "assay": "CHO cells transiently expressing TGR5 and pCRE-Luc", "type": "cell-based", "conditions": "different concentrations, almost as much cAMP accumulation as with 10 μM forskolin", "from_the_text": "These two steroids constitute about 2 percent by weight of gum guggul."}, "[6]": {"test_system": "HSMM", "assay": "Oxygen consumption and extracellular acidification rate in HSMM", "conditions": "for cellular oxygen consumption: 48 or 72 hours; for extracellular acidification rate: after 72 hours of treatment"}, "[7]": {"test_system": "humans", "conditions": "cited from earlier work"}, "[8]": {"test_system": "mouse SREBP-1c promoter", "assay": "SREBP-1c promoter luciferase reporter assay in McA-RH7777 cells", "type": "cell-based", "conditions": "McA-RH7777 rat hepatoma cells, LXRα transfection and/or LXR and RXR agonists", "quoted_text": "The LXR response elements in pSREBP-1c324-Luc were mutated for promoter analysis using the Quick Change Site-Directed Mutagenesis Kit (Stratagene, La Jolla, Calif., USA).\nThe rat hepatoma cell line McA-RH7777 was obtained from ATCC (Manassas, Va., USA). […] Transfections were performed in 96-well plates using Lipofectamine 2000 (Invitrogen, Cergy Pontoise, France). Each well contained 64 ng luciferase reporter and 4 ng of β-galactosidase expression plasmid. We transfected 16 ng RXRα, 16 ng LXRα, 16 ng LRH-1, 32 ng SHP expression plasmids, or the corresponding empty expression vectors. After 6 hours of incubation with the DNA-lipofectamine complexes, the transfection medium was exchanged for medium with or without the indicated ligands. Ligands for LXR and RXR were dissolved in ethanol or DMSO and added to the cells in DMEM supplemented with 10% lipoprotein-deficient serum. To suppress SREBP-1c activation by processing, leading to feed-forward induction of SREBP-1c expression, the medium used for the SREBP-1c promoter study was also supplemented with 10 μg/ml cholesterol and 1 μg/ml 25-hydroxycholesterol. Luciferase measurements were normalized to β-galactosidase activity."}, "[9]": {"test_system": "mouse primary hepatocytes", "assay": "Endogenous SREBP-1c and target gene expression in mouse primary hepatocytes", "type": "cell-based", "method": "Hepatocytes were isolated from wild-type male mice 8-10 weeks old. Animals were anesthetized with CO2 and livers were perfused with 40 ml Liver Perfusion Medium (Invitrogen) followed by 30 ml Liver Digestion Medium (Invitrogen), both at a flow rate of 5 ml/min. Isolated hepatocytes were resuspended in DMEM supplemented with 20% (v/v) FCS, 100 units/ml penicillin, and 100 units/ml streptomycin, and placed in plates coated with collagen IV at a density of 1×10^5 cells/cm^2. After a 4-hour incubation at 37° C. in an atmosphere of 5% CO2, the medium was changed to DMEM supplemented with 10% (v/v) FCS, 100 units/ml penicillin, 100 units/ml streptomycin, 0.5 μM dexamethasone (Sigma-Aldrich), and 0.4 μM insulin (Sigma-Aldrich). After 16 hours, the medium was changed into medium supplemented with CDCA and ligands for LXR and RXR. After an additional 18-hour incubation, cells were harvested for RNA isolation.\nTotal RNA was extracted from frozen tissue samples or cells using the RNeasy kit (QIAGEN, Courtaboeuf, France). cDNA was synthesized from total RNA with the SuperScript First-Strand Synthesis System (Invitrogen) and random hexamer primers. The real-time PCR measurement of individual cDNAs was performed using SYBR green dye to measure duplex DNA formation with the LightCycler System (Roche Diagnostics, Meylan, France). The sequences of the primer sets used are available online at http://www-igbmc.ustrasbg.fr/Departments/Dep_V/Dep_VA/Publi/Paper.html."}, "[10]": {"test_system": "BAT of C57BL/6J mice", "assay": "BAT gene expression by microarray and Q-RT-PCR", "type": "in vivo, mouse", "conditions": "high fat diet mixed with CA or CDCA for 9 days", "quoted_text": "For microarray analysis, RNA was isolated from BAT using the RNeasy mini kit (QIAGEN, Courtaboeuf, France). Equal amounts of RNA from mice in each group were pooled (n=3 or 4 mice) and used for cDNA synthesis. After second-strand cDNA synthesis (Life Technologies, Cergy Pontoise, France), in vitro transcription was performed with biotinylated UTP and CTP (Enzo Diagnostics, Farmingdale, N.Y.). Fragmented cRNA samples were hybridized to the Affymetrix MOE430A microarray. The raw data was analyzed using the Microarray Suite Software version 5.0 (MAS5.0, Affymetrix, Santa Clara, Calif.)."}, "[11]": {"test_system": "humans", "conditions": "treatment of cholesterol gallstones; cited from earlier work"}, "[12]": {"test_system": "C57BL/6J mice", "assay": "LXR agonist-induced lipogenesis in C57BL/6J mice with or without CA", "type": "in vivo, mouse", "conditions": "C57BL/6J mice, chow diet, gavage 30 mg/kg", "method": "Male C57BL/6J, KK-Ay, and ob/ob (C57BL/6J background) mice, 6-10 weeks of age, were obtained from Elevage Janvier (Le Genest St. Isle, France), CLEA Japan Inc. (Tokyo, Japan), and The Jackson Laboratory (Bar Harbor, Me., USA), respectively. All mice were maintained in a temperature-controlled (23° C.) facility with a 12-hour light/dark cycle and were given free access to food and water. The study protocols were approved by the institutional review boards. The body weight and food intake were measured every second day. The control and high-fat diet was obtained from UAR (Villemoisson sur Orge, France). […] The mice were fasted 4 hours before harvesting blood for subsequent lipid measurements, and tissues for RNA isolation, lipid measurements, and histology.\nMice were gavaged with the LXR agonist T0901317 or vehicle, and the different diets were continued for one more day, after which the mice were sacrificed."}}, "data": [{"smiles": "C[C@H](CCC(=O)NCCS(=O)(=O)O)[C@H]1CC[C@H]2[C@@H]3[C@H](O)C[C@@H]4C[C@H](O)CC[C@]4(C)[C@H]3CC[C@]12C", "note": "[TCDCA, tauroCDCA]", "values": [{"measurement": "cAMP levels", "setting": "[1]", "value": "did not increase"}]}, {"smiles": "C[C@H](CCC(=O)NCCS(=O)(=O)O)[C@H]1CC[C@H]2[C@@H]3[C@H](O)C[C@@H]4C[C@H](O)CC[C@]4(C)[C@H]3C[C@H](O)[C@]12C", "note": "[TCA, taurocholic acid]", "values": [{"measurement": "cAMP levels", "setting": "[1]", "value": "increased cAMP levels in a dose-dependant fashion"}, {"measurement": "cAMP levels", "setting": "[2]; BAT cells", "value": "most effective"}, {"measurement": "D2 mRNA and activity", "setting": "[2]; BAT cells from mice fed control or high fat diet", "value": "dose dependently increased"}, {"measurement": "luciferase expression", "setting": "[3]", "value": "increased luciferase expression in a dose-dependent manner"}, {"measurement": "D2 activity", "setting": "[4]", "value": "significant and dose dependent induction"}, {"measurement": "reporter activity", "setting": "[5]", "value": "dramatically increased"}, {"measurement": "cellular oxygen consumption", "setting": "[6]", "value": "elevated"}, {"measurement": "extracellular acidification rate", "setting": "[6]", "value": "increase"}]}, {"smiles": "C[C@H](CCC(=O)O)[C@H]1CC[C@H]2[C@@H]3[C@H](O)C[C@@H]4C[C@H](O)CC[C@]4(C)[C@H]3CC[C@]12C", "note": "[CDCA, chenodeoxycholic acid]", "values": [{"measurement": "hepatotoxicity", "setting": "[7]", "value": "significant hepatotoxicity"}, {"measurement": "LDL cholesterol", "setting": "[7]; decrease in LDL-R activity", "value": "raise LDL cholesterol"}, {"measurement": "increase of SREBP-1c promoter activity", "setting": "[8]", "value": "attenuated"}, {"measurement": "cAMP levels", "setting": "[1]", "value": "increased cAMP levels in a dose-dependant fashion"}, {"measurement": "expression of lipogenic target genes of SREBP-1c (SCD-1, AceCS, ME)", "setting": "[9]; RXR and LXR ligands plus CDCA", "value": "decreased likewise"}, {"measurement": "SHP expression", "setting": "[9]; addition of CDCA", "value": "increased"}, {"measurement": "endogenous SREBP-1c expression", "setting": "[9]; induced by RXR and LXR ligands, increasing amounts of CDCA, 18-hour incubation", "value": "decreased dose-dependently"}, {"measurement": "genes involved in control of energy expenditure incl. D2 in BAT (microarray)", "setting": "[10]", "value": "upregulated"}, {"measurement": "hypertriglyceridemia", "setting": "[11]", "value": "reduce hypertriglyceridemia"}]}, {"smiles": "N[C@@H](Cc1cc(I)c(Oc2ccc(O)c(I)c2)c(I)c1)C(=O)O", "note": "[T3, 3,5,3′-triiodothyronine]", "values": [{"measurement": "cellular oxygen consumption", "setting": "[6]", "value": "elevated"}, {"measurement": "extracellular acidification rate", "setting": "[6]", "value": "increase"}]}, {"smiles": "O=S(=O)(c1ccccc1)N(CC(F)(F)F)c1ccc(C(O)(C(F)(F)F)C(F)(F)F)cc1", "note": "[T0901317]", "values": [{"measurement": "liver weight and serum TGs", "setting": "[12]", "value": "induction"}]}]}
